The values below come from US20100331384A1, “GUANIDINE BASED COMPOUNDS” (UNIVERSIDAD DEL PAIS VASCO/EUSKAL HERRIKO UNIBERTSITATEA, priority 2007, published 2010).

Each structure is given as a SMILES string.

The target in data set [1] is T1, α2-ARs (Homo sapiens, UniProt P08913).
T1 construct: other: human brain tissue in vitro; other: stimulation of [35S]GTPγS b
As to the kind of experiment: [3H]RX821002 competition binding assay in human brain PFC membranes. To be noted: human brain tissue in vitro.

The target in data set [2] is T1, α2-ARs. The data set is described as follows: [35S]GTPγS binding functional assay, compounds alone. It counts as biochemical. To be noted: for agonistic or antagonistic properties in [35S]GTPγS experiments: human brain PFC; for stimulation of [35S]GTPγS binding by the compound on its own: human brain PFC membranes. As to the method: The [^35S]GTPγs binding assay constitutes a functional measure of the interaction of the receptor and the G-protein and is a useful tool to distinguish between agonists (increasing the nucleotide binding), inverse agonists (decreasing the nucleotide binding), and neutral antagonists (not affecting the nucleotide binding) of GPCRs.^20 Experiments were performed in low-affinity receptor conditions for agonists (presence of guanine nucleotides and sodium in the medium), and therefore, typical potency values are two-three logarithmic units lower than affinity values obtained in radioligand receptor binding experiments.^20
(§1) Preparation of membranes. Neural membranes (P2 fractions) were prepared from the PFC of human brains obtained at autopsy in the Instituto Vasco de Medicina Legal, Bilbao, Spain. Postmortem human brain samples of each subject (˜1 g) were homogenized using a Teflon-glass grinder (10 up-and-down strokes at 1500 rpm) in 30 volumes of homogenization buffer (1 mM MgCl2, and 5 mM Tris-HCl, pH 7.4) supplemented with 0.25 M sucrose. The crude homogenate was centrifuged for 5 min at 1000×g ([…]) and the supernatant was centrifuged again for 10 min at 40000×g (4° C.). The resultant pellet was washed twice in 20 volumes of homogenization buffer and recentrifuged in similar conditions. Aliquots of 1 mg protein were stored at −70° C. until assay.
[^35S]GTPγs binding assays. The incubation buffer for measuring [^35S]GTPγs binding to brain membranes contained, in a total volume of 500 μL, 1 mM EGTA, 3 mM MgCl2, 100 mM NaCl, […], 50 mM Tris-HCl at pH 7.4 and 0.5 nM [^35S]GTPγs. Proteins aliquots were thawed and re-suspended in the same buffer. The incubation was started by addition of the membrane suspension (40 μg of membrane proteins) to the previous mixture and was performed at 30° C. for 120 min with shaking. In order to evaluate the influence of the compounds on [^35S]GTPγs binding, 8 concentrations (10^−10 to 10^−3M) of the different compounds were added to the assay. Incubations were terminated by adding 3 mL of ice-cold re-suspension buffer followed by rapid filtration through Whatman GF/C filters pre-soaked in the same buffer. The filters were rinsed twice with 3 mL of ice-cold re-suspension buffer, transferred to vials containing 5 mL of OptiPhase HiSafe II cocktail (Wallac, UK) and the radioactivity trapped was determined by liquid scintillation spectrometry (Packard 2200CA). […] Non-specific binding of the radioligand was defined as the remaining [^35S]GTPγs binding in the presence of 10 μM unlabelled GTPγs.

Data set [3] has as its system cloned human α2-AR receptor. To be noted: disclosed in WO9846572; cited from earlier work.
The test system of a further data set is mice. As to the kind of experiment: Tail suspension test. It counts as in vivo. To be noted: compared with saline control, FIG. 4. An excerpt:
The tail suspension test as illustrated in FIG. 4 has become one of the most widely used models for assessing antidepressant-like activity in mice. The test is based on the fact that animals subjected to the short-term, inescapable stress of being suspended by their tail, will develop an immobile posture. Antidepressant medications encourage the animal to struggle and promote the occurrence of escape-related behaviour.

Data set [4] relates to extracellular NA levels in the PFC. As to the kind of experiment: In vivo microdialysis in the PFC, extracellular NA. More on the design: species or system male Sprague Dawley rats. To be noted: for ability to cross the blood brain barrier (BBB): deduced from NA increase after systemic administration; for Emax of increase in extracellular NA levels: local administration by reverse dialysis 1-100 μM in PFC, percentage of basal values; for α2-AR antagonist properties in vivo: local and systemic administration, rats; for increase of NA extracellular concentration, maximal effect: systemic (intraperitoneal) administration, evaluated in PFC. The text has this: Intracerebral microdialysis is a neurochemical technique that has been applied extensively in pharmacological studies aimed at investigating the effect of different drugs on brain neurotransmission. This technique allows one to collect a representative concentration of different neurotransmitters of the area where the probe is implanted while the animals are awake and freely moving.^21
Most antidepressant drugs are able to increase NA extracellular concentrations in different brain areas as the PFC, an area implicated in depression disease. Considering that α2-ARs exert a tonic inhibitory action on NA release from the noradrenergic terminals we assessed the ability of these two new compounds to increase NA extracellular concentration in this area. First, we tested the drugs when administered locally in order to confirm their antagonistic activity over α2-ARs in vivo.
A second step was to study the effect of these compounds increasing NA extracellular concentrations when administered systemically.
In Vivo Microdialysis assays. The experiments were carried out in male Sprague Dawley rats weighing between 250 g and 300 g. At the beginning of the experiments, animals were anaesthetized with chloral hydrate (400 mg/kg i.p.) and a microdialysis probe was implanted by stereotaxic surgery into prefrontal cortex (PFC) brain area. The coordinates selected for the PFC were as follows: AP (anterior to bregma) +2.8 mm, L (lateral from the mid-sagittal suture) +1 mm, DV (ventral from the dura surface) −5 mm.^22 After 24 hours for animal recovery, perfusion fluid (artificial cerebrospinal fluid) is pumped through the probe at a flow rate of 1 μl/min. In the semipermeable membrane, that is the critical side of the probe and is placed on the selected area, molecules flow into and out the cannulae by diffusion. Therefore, microdialysis technique allows local administration of substrates dissolved in the perfusion fluids.
When drugs were locally administered, they were dissolved in a CSF and applied during 70 min via dialysis probe implanted in the PFC in increasing concentrations of 1, 10 and 100 μM. The compounds systemically administered were dissolved in saline and injected intraperitoneally.
Samples, collected with the microdialysis procedure (every 35 min), were analyzed by HPLC with electrochemical detection. NA concentrations were monitorizated by an amperometric detector (Hewlett-Packard model 1049A) at an oxidizing potential of +650 mV. The movil phase (12 mM citric acid, 1 mM EDTA, 0.7 mM octylsodio sulfate, pH 5 and 10% methanol) was filtered, degassed (Hewlett-Packard model 1100 degasser) and delivered at a flow rate of 0.2 ml/min by a Hewlett-Packard model 1100 pump. Stationary phase was a column of 150×2.1 mm (Thermo Electron Corporation, U.S.A.). Samples (injection volume 37 μl) were injected and NA analized in a run time of 10 min. Solution of standard noradrenaline was injected every working day to create a new calibration table.
The mean values of the first three samples before substrate administration were considered as 100% basal value. All measures of extracellular NA concentrations are expressed as percentage of the baseline value±s.e.mean. One way analysis of variance (ANOVA) for control group or two way ANOVA between control and each treated group was assessed for statistical analysis. After the experiments, rats were sacrificed with an overdose of chloral hydrate and the brains were dissected to check the correct implantation of the probe.

The target in data set [5] is T1, α2-ARs. As to the kind of experiment: [3H]RX821002 competition binding assay in human brain PFC membranes. To be noted: human brain PFC tissue, competition with [3H]RX821002 1 nM. On the procedure:
as §1
[^3H]RX821002 binding assays. […] Incubations were terminated by diluting the samples with 5 ml of ice-cold Tris incubation buffer (4° C.). Membrane bound [^3H]RX821002 was separated by vacuum filtration through Whatman GF/C glass fibre filters. Then, the filters were rinsed twice with 5 ml of incubation buffer and transferred to minivials containing 3 ml of OptiPhase “HiSafe” II cocktail and counted for radioactivity by liquid scintillation spectrometry. Specific binding was determined and plotted as a function of the compound concentration. Non-specific binding was determined in the presence of adrenaline (10^−5 M).
Analysis of binding data. Analysis of competition experiments to obtain the inhibition constant (Ki) were performed by nonlinear regression using the GraphPad Prism program. All experiments were analysed assuming a one-site model of radioligand binding. Ki values were normalized to pKi values.

T1 sequence (P08913 whole entry): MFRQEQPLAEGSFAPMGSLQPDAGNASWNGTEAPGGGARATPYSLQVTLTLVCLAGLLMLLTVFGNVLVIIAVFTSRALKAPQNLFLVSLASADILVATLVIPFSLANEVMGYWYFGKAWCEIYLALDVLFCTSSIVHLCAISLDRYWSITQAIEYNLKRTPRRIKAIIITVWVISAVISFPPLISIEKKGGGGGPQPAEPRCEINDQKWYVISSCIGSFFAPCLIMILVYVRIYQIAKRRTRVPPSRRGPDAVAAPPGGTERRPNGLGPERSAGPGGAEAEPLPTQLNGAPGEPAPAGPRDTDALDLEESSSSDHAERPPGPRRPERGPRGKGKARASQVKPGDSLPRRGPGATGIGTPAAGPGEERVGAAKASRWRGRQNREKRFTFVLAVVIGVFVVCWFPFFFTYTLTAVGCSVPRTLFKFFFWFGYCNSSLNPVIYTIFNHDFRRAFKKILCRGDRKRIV

With `c1cc2c(cc1NC1=NCCN1)CCC2` [Compound 9b, 5-(2-imidazolidinylimino)indan], the “affinity towards the α2-ARs compared with references” value on α2-ARs [1] was “within the range of those of Idazoxan and/or Clonidine”. Also, at α2-ARs [2], the “agonistic or antagonistic properties in [35S]GTPγS experiments” value (shortened to “agonistic or antagonistic properties”) is on record as “agonistic properties” and the “stimulation of [35S]GTPγS binding by the compound on its own” value (from here on “stimulation of [35S]GTPγS binding”) is “stimulated binding”. The maximum response (Emax) (usually the maximal effect, on the per cent scale that the assay sets) at α2-ARs [2] (read-out: Emax (%), percentage efficacy relative to UK14304) was 98%. In data set [3], the “activity at cloned human α2-AR receptor” value is given as “agonist”.

With `N=C(N)Nc1ccc2c(c1)CCCC2` [Compound 17b, N-(5,6,7,8-tetrahydro-naphthalen-2-yl)-guanidine], the immobility period entry in the data set with mice was “slightly shorter immobility period than the saline control”. Further, in data set [4], the “ability to cross the blood brain barrier (BBB)” value is “able to cross the blood brain barrier”; the “Emax of increase in extracellular NA levels” value (“Emax of increase” below) worked out at 326±113%; the “α2-AR antagonist properties in vivo” value is given as “α2-AR antagonist properties in vivo”; the “increase of NA extracellular concentration, maximal effect” value stood at 373±73%. In addition, on α2-ARs [1], the “affinity towards the α2-ARs compared with references” value is given as “within the range of those of Idazoxan and/or Clonidine”. Further, on α2-ARs [2], the “agonistic or antagonistic properties” value is “antagonistic properties” and the “stimulation of [35S]GTPγS binding” value is listed as “did not stimulate binding”.

Regarding `c1cc(NC2=NCCN2)ccc1CCc1ccc(NC2=NCCN2)cc1` [Compound 20b, 4,4′-di(2-imidazolidinylimino)-1,2-diphenylethane], in the data set with mice, the immobility period result is recorded as “slightly shorter immobility period than the saline control”. In addition, in data set [4], the “ability to cross the blood brain barrier (BBB)” value is recorded as “able to cross the blood brain barrier”; the “Emax of increase” value was found to be 255±76%; the “α2-AR antagonist properties in vivo” value is recorded as “α2-AR antagonist properties in vivo”; the “increase of NA extracellular concentration, maximal effect” value worked out at 156±35%. For the same compound, the “affinity towards the α2-ARs compared with references” value on α2-ARs [1] is “within the range of those of Idazoxan and/or Clonidine”. Further, on α2-ARs [2], the “agonistic or antagonistic properties” value is “antagonistic properties” and the “stimulation of [35S]GTPγS binding” value is listed as “did not stimulate binding”.

`COC1(C2=NCCN2)COc2ccccc2O1` (centres unmarked) [RX821002, 2-methoxy-idazoxan, reference compound]: the “affinity for the α2-ARs expressed as pKi” value at α2-ARs [5] is 9.04. Besides, in data set [4], the “Emax of increase” value was determined as 287±49%.
